# From patent publication US8772274B1, “Anti-cancer compositions and methods” (The Penn State Research Foundation, priority 2008, dated 2014)
# Where a name gives a salt, the structure may show the parent alone. Read-outs that look alike come from different tables or passages of the source.
# What was measured:
# [1] = tested on: PI3 kinase signaling in Caco-2 cells; experiment: Western blot analysis of Caco-2 cell lysates; format: cell-based
# Procedure: For additional Western blot analysis, Caco-2 cell lysates are harvested by addition of lyses buffer containing 50 mM HEPES (pH 7.5), 150 mM NaCl, 10 mM EDTA, 10% glycerol, 1% Triton X-100, 1 mM sodium orthovanadate, 0.1 mM sodium molybdate, 1 mM phenylmethylsulfonyl fluoride, 20 μg/ml aprotinin, and 5 μg/ml leupeptin. Whole cell lysates are centrifuged (≦10,000×g) for 10 minutes at 4° C. to remove cell debris. Protein concentrations are quantitated using the BCA assay (Pierce; Rockford, Ill.), and 30 μg of lysate loaded per lane onto NuPAGE Gels (Life Technologies, Inc. Carlsbad, Calif.). Following electrophoresis, samples are transferred to polyvinylidene difluoride (PVDF) membrane (Pall Corporation, Pensacola, Fla.) and the blots probed with antibodies according to each supplier's recommendations: antibodies to PRAS40 and phosphorylated PRAS40 from Invitrogen (Invitrogen Corporation, Carlsbad, Calif.); antibodies to cyclin D1, p27, p21, and Erk2 from Santa Cruz Biotechnology (Santa Cruz, Calif.); and antibodies to Akt2, phosphorylated-Akt (Ser473), phosphorylated-Erk 1/2 and cleaved PARP from Cell Signaling Technology (Danvers, Mass.). Secondary antibodies conjugated with horseradish peroxidase are obtained from Santa Cruz Biotechnology (Santa Cruz, Calif.). Immunoblots are developed using the enhanced chemiluminescence (ECL) detection system (Pierce Biotechnology, Rockford, Ill.) (FIGS. 6A and 6B).
# [2] = tested on: UACC 903 melanoma tumors; experiment: Tumorigenicity assessment, UACC 903 xenograft, i.p. treatment; format: in vivo, nude mice; conditions: day 24; i.p. 0.315 moles (2.5 ppm selenium) Monday, Wednesday, Friday for 3 weeks
# Procedure: Tumor kinetics are measured by subcutaneous injection of 5×10^6 UACC 903 or 2.5×10^61205 Lu cells in 0.2 ml of DMEM containing 10% FBS above left and right rib cages of 4-6 week old female nude mice (Harlan Sprague Dawley, Indianapolis, Ind.). Six days later, a fully vascularized tumor has developed and mice are randomly placed in control DMSO or experimental (PBIT or PBISe) groups (n=5 animals; 10 tumors total) followed by i.p. treatment with PBIT ([…]) or PBISe ([…]; equivalent to 2.5 ppm selenium per 20 g mouse) on Monday, Wednesday and Friday for 3 weeks. Dimensions of developing tumors and body weight are measured.
# [3] = tested on: normal human fibroblast cells (FF2441); experiment: MTS cell viability assay, normal fibroblasts; format: cell-based; conditions: Homo sapiens, FF2441, read-out: Inhibition of growth IC50, Fibroblast cells (FF2441) (Table II)
# Procedure: (§1) 5×10^3 cells per well in 100 μl DMEM-10% FBS are grown in a 96-well plate for 36 or 72 hours, respectively for melanoma (UACC 903, 1205 Lu and WM115) and human fibroblast (FF2441) cell lines and treated with either PBS vehicle or increasing concentrations (3.5-21 μM) of PBIT, PBISe, PEIT or PEISe for 24 hours. Cellular viability compared to control treated cells is measured using the MTS assay (Promega, Madison, Wis.). IC50 (μM) values for each compound in respective cell lines is determined from three independent experiments using GraphPad Prism version 4.01 (GraphPad, San Diego, Calif.), bars, SEM.
# Viability of colon adenocarcinoma cells (Caco-2, HT 29, HCT 116, SW 480) and normal fibroblast cells (FF2441) treated with PBIT (1), PBISe (2), PEIT (3) or PEISe (4) is compared. The IC50 value is evaluated by treating with increasing concentrations of PBIT, PEIT, PEISe (10-100 μM) or PBISe (1.6-50 μM) for 24-72 hours and the number of viable cell are quantified using MTS (Promega, Wis.).
# [4] = tested on: WM115 melanoma cell line; experiment: MTS cell viability assay, WM115; conditions: for IC50: Homo sapiens, WM-115, 24 h
# Procedure: as §1
# Growth inhibitory effects on cultured cells from human vertical growth phase (VGP) melanoma cell line WM115, Lung adenocarcinoma (A549), fibrosarcoma (HT-1080), prostate adenocarcinoma (PC-3), ovarian carcinoma (OVCAR-3), and breast adenocarcinoma (MDA-MB-231) are plated in 96 well plates at a density of 5×10^3 cells/well in 100 μl media. The cells are treated 36 hours later with PBISe (0.19-100 μM), PBIT (10-100 μM), PEIT 10-100 μM), or PEISe (10-100 μM) for 24 h and cell viability measured using MTS assay. Dose response curves for each compound are generated and the IC50 values (μM) determined using GraphPad Prism software. Each experiment is replicated at least 3 times and the average IC50 (μM) values with standard error represented.
# [5] = tested on: PC-3 prostate adenocarcinoma cells; experiment: MTS cell viability assay, PC-3; format: cell-based, human
# Procedure: Growth inhibitory effects on cultured cells from human vertical growth phase (VGP) melanoma cell line WM115, Lung adenocarcinoma (A549), fibrosarcoma (HT-1080), prostate adenocarcinoma (PC-3), ovarian carcinoma (OVCAR-3), and breast adenocarcinoma (MDA-MB-231) are plated in 96 well plates at a density of 5×10^3 cells/well in 100 μl media. […] Dose response curves for each compound are generated and the IC50 values (μM) determined using GraphPad Prism software. Each experiment is replicated at least 3 times and the average IC50 (μM) values with standard error represented.
# [6] = Toxicity of topical application in vivo
# Procedure: Blood collected from the control and experimental animals, at the end of treatment (day 29), are analyzed for SGOT, SGPT (representing liver and cardiac toxicity) and alkaline phosphatase (for kidney and cardiac toxicity). Additionally, concentrations of metabolites (glucose, creatinine, urea nitrogen and total protein) in serum are also determined.
# [7] = tested on: 1205Lu melanoma cell line; experiment: MTS cell viability assay, 1205Lu; format: cell-based; conditions: Homo sapiens; 1205Lu melanoma; 24 hours treatment; MTS; read-out: IC50, 1205Lu (Table I)
# Procedure: (§2) Cellular viability compared to control treated cells is measured using the MTS assay (Promega, Madison, Wis.).
# [8] = tested on: UACC 903 melanoma cell line; experiment: MTS cell viability assay, UACC 903; format: cell-based; conditions: Homo sapiens; UACC 903 melanoma; 24 hours treatment; MTS; read-out: IC50, UACC 903 (Table I)
# Procedure: as §2
# [9] = tested on: UACC 903 tumors; experiment: Apoptosis and proliferation rates in size and time matched tumors; format: in vivo, nude mice; conditions: day 15, i.p. on alternate days
# Procedure: For mechanistic studies, 5×10^6 UACC 903 cells are injected subcutaneously into nude mice generating tumors of the same size developing at parallel time points. 6-days later mice are treated i.p. with DMSO vehicle, PBIT or PBISe (0.315 moles each) on alternate days up to day 15. Size and time matched tumors are harvested at days 9, 11, 13, and 15 to assess changes in cell proliferation and apoptosis. […] Protein concentration is quantitated using Bio-Rad protein assay reagent (Bio-Rad laboratories, Hercules, Calif.) and analyzed by Western blotting.
# For caspase-3/7 activity determination, 100 μg of protein lysate is incubated with a Rhodamine-110 conjugated caspase-3/7 substrate (Z-DEVD) for 1-2 hours and fluorescence (485 nm excitation and 520 nm emission) measured in a SPECTRAmax M2 plate reader. […] A minimum of 6 different tumors with 4-6 fields per tumor is analyzed and results represented as the average±SEM. […]
# [10] = tested on: iNOS (total nitrate+nitrite in Caco-2 cells); experiment: Nitrite estimation (nitrate/nitrite colorimetric assay); format: cell-based; conditions: 2-4 μM, 72 hours
# Procedure: Nitrite content in cell culture media is determined using a nitrate/nitrite colorimetric assay kit (Cayman Chemical Company, Ann Arbor, Mich.) essentially as described in Salvucci, O. et al., Cancer Res 2001; 61:318-26. Caco-2 cells (1×10^6) are plated in 60 mm culture dishes in advanced DMEM containing 10% heat treated FBS for 12 hours, growing cells conditioned with phenol-red free DMEM containing 0.5% FBS for an additional 12 hours. Cells are then treated with increasing concentrations of PBIT (40 and 80 μM) or PBISe (2 and 4 μM) dissolved in phenol-red free DMEM (2 ml) containing 0.5% FBS for 72 hours. Culture supernatants are collected and total nitrite (nitrate+nitrite) measured by incubating 80 μL supernatant with enzyme cofactor mixture (10 μL) and nitrate reductase (10 μL) for 2 hours. Total nitrite is measured by the addition of Griess reagent-I and II (50 μL each). A nitrate standard curve (5-35 μM) is simultaneously prepared. Total nitrite present in media alone is subtracted from all experimental values and represented as micromolar nitrite produced following each treatment.
smiles,measurement,setting,value
"N=C(N)[Se]CCc1ccc(CC[Se]C(=N)N)cc1 [PBISe, s,s′-1,4-phenylene-bis(1,2-ethanediyl)bis-isoselenourea dihydrobromide]",cleaved PARP,[1],increase
same,downstream pPRAS40 level,[1],decreased
same,pAkt and Akt2 levels,[1],decreased
same,"difference in tumor volume compared to control DMSO or PBIT, UACC 903",[2],~30%
same,IC50,[3],17.1 ± 0.59 µM
same,IC50,"[4]; read-out: IC50, WM115 (Table I)",9.7 ± 1.4 µM
same,IC50,"[4]; read-out: Inhibition Cancer Cells IC50, WM115 (Table III)",9.7 ± 1.4 µM
same,"Fold increase in efficacy (PBIT/PBISe), WM115","[4]; ratio of IC50 PBIT/PBISe, WM115",>10 fold
same,IC50,"[5]; Homo sapiens, 24 h, read-out: Inhibition Cancer Cells IC50, PC-3 (Table III)",6.6 ± 0.95 µM
same,"Fold increase in efficacy (PBIT/PBISe), PC-3","[5]; ratio of IC50 PBIT/PBISe, PC-3",>15.2 fold
same,"serum enzyme and metabolite levels, topical application","[6]; day 29, SGOT, SGPT, alkaline phosphatase, glucose, creatinine, urea nitrogen, total protein",no significant differences
same,"body weight, topical application","[6]; topical every day, 29 days",no detectable differences
same,IC50,[7],9.8 ± 0.7 µM
same,IC50,[8],8.1 ± 0.8 µM
same,caspase-3/7 activity in tumors versus PBIT or DMSO vehicle,[9],2 fold
same,total nitrate+nitrite production,[10],reduces
